Source: patent US11542311B2, “Fusion protein, preparation method therefor and application thereof in preparing ophthalmic disease treatment, anti-inflammation and anti-tumor medicament” (JIANGSU RONGTAI BIOTECH CO., LTD., priority 2017, dated 2023)

Experiments:
[1] = system: xylene-induced ear swelling in mice; test: Xylene-induced ear swelling in mice; format: in vivo, Kunming mice; settings: 200 mg/kg
Method: 80 Kunming mice were divided into 8 groups with 10 mice for each group and numbered. A physiological saline group was used as a blank control group, an aspirin group (200 mg/kg) was used as a positive control group, and fusion proteins I and II at high, medium and low doses (128, 32, 8 mg/kg) was used as the experimental groups. Mice were administered once by injection every 5 days. The blank control group was given an equal volume of physiological saline. On the fifth day after the administration, 0.05 mL of xylene was applied to both sides of the right ears of the mice to induce inflammation, and the left ears were not applied and were normal ears. After 2 h, the mice were sacrificed by dislocation, and the ears were cut along the auricle. Ear pieces were taken with a puncher and weighed, and the swelling degree and swelling rate were calculated. Swelling degree=right ear piece weight-left ear piece weight, swelling rate=(swelling degree/left ear piece weight)×100%.

[2] = system: adjuvant arthritis in rat; test: Chronic inflammation of adjuvant arthritis in rat; format: in vivo, SD rats; settings: 1 mg/kg once every 5 days for 15 days
Method: 80 SPF SD rats were randomly divided into 8 groups. Rats in each group were lightly anesthetized with ether. Then, 0.1 mL of complete Freund's adjuvant containing inactivated Mycobacterium tuberculosis was injected subcutaneously into the left hind foot of the rats. Primary arthritis occurred in the left hind foot of the rat, and at about 13 days post-modeling, secondary arthritis occurred in the right hind foot. A blank control group was injected with an equal volume of physiological saline. The drug was administered 13 days after modeling.
Using a foot volume measuring method, a marker was made with a fat-soluble marker at the left and right posterior ankle joints of each rat, and the left and right hind feet of the animal were respectively immersed in the volume measuring device. The immersion depth was bounded by the marker, and the reading value at the scale pipette of the device was the initial volume of the animal's left and right hind feet.
The day of modeling was considered as the 0th day and recorded as d0. The volume of the left hind foot (modeling foot) was measured from the first day dl after modeling every 2 days. When the swelling occurred (i.e., secondary arthritis occurred) at the contralateral non-inflammatory foot (right hind foot), the administration was started. The volume of the left and right hind feet was measured once every 2 days, and the degree of primary and secondary toe swelling was determined, which was calculated as follows: Primary toe swelling (mL)=left hind foot volume on the day of measurement−initial volume of left hind foot Secondary toe swelling (mL)=right hind foot volume on the day of measurement−initial volume of right hind foot
Systemic score: the systemic score was taken every 2 days after the onset of secondary inflammation.
Hind foot: no swelling=0 score, one hind foot swelling=1 score, two hind feet swelling=2 scores;
Forefoot: no swelling=0 score, one forefoot swelling=1 score, two forefeet swelling=2 scores;
Ears: no redness and nodules=0 score, redness or nodules in one ear=1 score, redness and nodules in both ears=2 scores;
Nose: no swelling=0 score, obvious swelling=1 score;
Tail: no nodules=0 score, nodules=1 score; full score was 8 scores.
Arthritis index score: the arthritis index score was performed every 2 days after the onset of secondary inflammation.
The initial body weight of each group of rats was weighed before modeling. The body weight was measured every 2 days from dl after modeling, from which the initial body weight was subtracted to obtain the weight gain of each group of rats.

[3] = system: Human umbilical vein endothelial cells (HUVECs); test: Three-dimensional transwell assay, migration of HUVEC; format: cell-based; settings: 8.0 · 10^−6 μg/mL, 24 h
Method: (1) 10 mg/mL Matrigel (a basement membrane matrix secreted by Engelbreth-Holm-Swarm (EHS) mouse sarcoma cells) diluted with a DMEM medium (Dulbecco's Modified Eagle Medium) at a ratio of 1:4, coated on a transwell chamber membrane, and air-dried at room temperature;
(2) HUVEC cells cultured to logarithmic phase were digested with 0.2% EDTA, collected, washed twice with PBS, followed by resuspended in an endothelial cell culture liquid containing 0.1% BSA, and counted under a microscope, and the cell concentration was adjusted to 1×10^5 cells/mL;
(3) Test solutions for each group were formulated and diluted to 100 μL with a cell culture liquid containing 0.1% BSA;
(4) The cells were inoculated into a transwell chamber, 100 μL per well, and test solutions for each group were added to the chamber. To a 24-well plate, 0.6 mL of endothelial cell culture liquid containing 5% fetal bovine serum and 1×ECGS was added to stimulate cell migration, and incubated at 5% CO2 at 37° C. for 24 h;
(5) The culture liquid in the well was discarded. […] The migration inhibition (MI) was calculated according to the formula: […]
The test was repeated 3 times independently. The results obtained from the test were calculated as mean±SD, and statistical t-test was performed. […]

[4] = system: human glioma U87; test: MTT assay, proliferation of human glioma U87; format: cell-based; settings: 5 μg/mL, 48 h
Method: (§1) The MTT assay was used to detect the inhibitory effect of the integrin blocker fusion protein obtained in Example 1 on the proliferation of various tumor cells, including melanoma cell B16F10, gastric cancer cell MGC-803, lung cancer cell A549, liver cancer cell Hep-G2, breast cancer cell MDA-MB-231, colon cancer cell HCT-116, human glioma U87, and cervical cancer cell Hela.
(§2) The tumor cells were cultured in a 5% CO2 incubator at 37° C. to a density of 90% or more, and collected by trypsinization. The cells were resuspended in the culture liquid and counted under a microscope. The cell concentration was adjusted to 3.0×10^4 cells/mL. The cell suspension was inoculated into a 96-well plate, 100 μL per well, and cultured overnight in a 5% CO2 incubator at 37° C. The fusion proteins I, II, and the positive drug Taxol were diluted with the culture liquid to respective predetermined concentrations. After the cells were fully adhered, each dilution was added to a 96-well plate, 100 μL per well, respectively. […] The absorbance was measured at 570 nm with a microplate reader with a reference wavelength of 630 nm, and the proliferation inhibition (PI) was calculated. […]
(§3) The test was repeated 5 times independently. The results obtained from the test were calculated as mean±SD, and statistical t-test was performed. […]

[5] = system: lung cancer cell A549; test: MTT assay, proliferation of lung cancer cell A549; format: cell-based; settings: 5 μg/mL, 48 h
Method: as §1, §2, §3

[6] = system: gastric cancer cell MGC-803; test: MTT assay, proliferation of gastric cancer cell MGC-803; format: cell-based; settings: 5 μg/mL, 48 h
Method: as §1, §2, §3

[7] = system: colon cancer cell HCT-116; test: MTT assay, proliferation of colon cancer cell HCT-116; format: cell-based; settings: 5 μg/mL, 48 h
Method: as §1, §2, §3

[8] = system: breast cancer cell MDA-MB-231; test: MTT assay, proliferation of breast cancer cell MDA-MB-231; format: cell-based; settings: 5 μg/mL, 48 h
Method: as §1, §2, §3

[9] = system: cervical cancer cell Hela; test: MTT assay, proliferation of cervical cancer cell Hela; format: cell-based; settings: 5 μg/mL, 48 h
Method: as §1, §2, §3

[10] = system: liver cancer cell Hep-G2; test: MTT assay, proliferation of liver cancer cell Hep-G2; format: cell-based; settings: 5 μg/mL, 48 h
Method: as §1, §2, §3

[11] = system: melanoma cell B16F10; test: MTT assay, proliferation of melanoma cell B16F10; format: cell-based; settings: 5 μg/mL, 48 h
Method: as §1, §2, §3

CC(=O)Oc1ccccc1C(=O)O [Aspirin, aspirin, reference compound]
PI (%) ([1]; ear swelling, mice): 53.15%
Swelling degree ([1]; mouse ear, 2 h after xylene): 3.12 ± 0.61 mg

CN(Cc1cnc2nc(N)nc(N)c2n1)c1ccc(C(=O)N[C@@H](CCC(=O)O)C(=O)O)cc1 [Methotrexate, methotrexate, reference compound]
Clinical score Arthritis index [2]: 2.96 ± 0.57
Clinical score Whole body [2]: 1.34 ± 0.19
Foot swelling degree (mL) Left [2]: 1.22 ± 0.21 mL
Foot swelling degree (mL) Right [2]: 1.25 ± 0.13 mL
Weight gain [2]: 47.35 ± 17.40 g

CCN(CC)CCNC(=O)c1c(C)[nH]c(/C=C2\C(=O)Nc3ccc(F)cc32)c1C [Sunitinib, reference compound]
MI (%) [3]: 82.31%
Migration cell number [3]: 441.0 ± 150.58

CC(=O)O[C@H]1C(=O)[C@@]2(C)[C@H]([C@H](OC(=O)c3ccccc3)[C@]3(O)C[C@H](OC(=O)[C@H](O)[C@@H](NC(=O)c4ccccc4)c4ccccc4)C(C)=C1C3(C)C)[C@]1(OC(C)=O)CO[C@@H]1C[C@@H]2O [Taxol, reference compound]
A570 nm/A630 nm [4]: 0.1825 ± 0.0163
PI (%) [4]: 76.38%
A570 nm/A630 nm [5]: 0.3226 ± 0.0309
PI (%) [5]: 52.17%
A570 nm/A630 nm [6]: 0.4146 ± 0.0186
PI (%) [6]: 56.60%
A570 nm/A630 nm [7]: 0.2098 ± 0.0164
PI (%) [7]: 69.16%
A570 nm/A630 nm [8]: 0.4071 ± 0.0301
PI (%) [8]: 52.83%
A570 nm/A630 nm [9]: 0.2078 ± 0.0162
PI (%) [9]: 83.75%
A570 nm/A630 nm [10]: 0.4257 ± 0.0099
PI (%) [10]: 58.55%
A570 nm/A630 nm [11]: 0.6011 ± 0.0144
PI (%) [11]: 52.13%
